Measurements as given in patent US8466110B2, “Use of an agent that restores tissue perfusion and oxygenation” (Duke University, priority 2005, dated 2013).
Entries after “also recorded” stand apart in the source; their conditions may differ.

How the values were obtained:
[1] = system: mammary adenocarcinoma R3230AC tumors; experiment: Tumor perfusion by Laser Doppler flowmetry; format: in vivo, rat; parameters: key to TUMOR perfusion: 0, unchanged; ↓, decreased; ↑, increased; conditions: for tumor blood flow (perfusion), flank tumors: normoxic rats
Fischer 344 rats [2] = experiment: Blood gas and hemoglobin saturation measurements; format: in vivo, rat; conditions: breathing 100% O2
Method: Blood gases and Hb oxygen saturation were measured using a 1640 oximeter coupled to a 482 co-oximeter (Instrumentation Laboratories, Lexington, Mass., United States of America) from 0.5 ml samples of femoral arterial and venous blood. For tumor microvessels in window chambers, Hb saturation was calculated from transmission optical measurements of vascular absorbance using a hyperspectral imaging technique described in Sorg et al., 2005. A liquid crystal tunable filter (CRI, Inc., Woburn, Mass., United States of America) placed in front of a CCD camera (DVC Company, Austin, Tex., United States of America) was used for band-limited imaging.

quadriceps muscle [3] = experiment: Quadriceps muscle pO2 during gas breathing; format: in vivo, rat
Method: (§1) Tumors were implanted in rats as described hereinabove, and the rats were set up to breathe either 100% O2, 100% O2 plus 100 parts per million ethyl nitrite (ENO), normal room air, or normal room air plus 100 ppm ENO. pO2 was monitored in the tumor or in quadriceps muscle from 30 minutes before the administration of the 100% O2/100% O2 plus 100 ppm ENO/room air/room air plus 100 ppm ENO, during 30 minutes of breathing of the gases, and for 30 minutes after the administered gas supply was removed.

tumor-feeding arterioles = experiment: Diameter of tumor-feeding arterioles in window chambers; format: in vivo, rat; parameters: key to TUMOR vascular diameter: 0, unchanged; ↓, decreased; ↑, increased; conditions: for TUMOR vascular diameter: IV
Excerpt: For i.v. infusions, the femoral artery and vein were cannulated and drugs were infused through the venous cannula. For i.a. infusions, the femoral and left carotid arteries were cannulated and drugs were infused through the carotid cannula. For window chamber experiments, the two window frames were surgically positioned in the dorsal skin flap, followed by tumor cell transplantation to the chamber tissue, as described in Dewhirst et al., 1996. Following several days of tumor growth, direct visualization of tumor-feeding arterioles was performed using intravital microscopy. Tumor-feeding arterioles in window chambers were visualized using transillumination. Arteriolar diameters were measured from videotaped images using an image-shearing monitor (IPM Inc., San Diego, Calif., United States of America).

[4] = system: mammary adenocarcinoma R3230AC tumors; experiment: Tumor pO2 during gas breathing; format: in vivo, rat
Method: as §1

Fischer 344 rats [5] = experiment: Mean arterial pressure and heart rate; format: in vivo, rat; parameters: key to SYSTEMIC MAP / SYSTEMIC HR: 0, unchanged; ↓, decreased; ↑, increased
Method: Mean arterial pressure (MAP) and heart rate (HR) were measured with a blood pressure analyzer (Digi-Med, Micro-Med, Louisville, Ky., United States of America) connected to the femoral artery cannula as described in Dewhirst et al., 1996.

[6] = system: mammary adenocarcinoma R3230AC tumors; experiment: Tumor growth delay after radiation; format: in vivo, rat; conditions: 100 ppm ENO plus 100% O2; 2 Gy daily on days 0-4; versus 100% O2, room air, non-irradiated
Method: Tumors were implanted in rats as described hereinabove, and the tumors were irradiated daily with 2 Gy of irradiation on days 0-4. Relative tumor volumes were determined daily from day 0 to day 18 in rats that breathed room air (N=4), 100% O2 (N=4), or 100 ppm ENO plus 100% O2. As a control, relative tumor volumes for rats that breathed room air (N=3) and were not treated with radiation. were also determined.

[7] = cited from earlier work
quadriceps muscle [8] = experiment: Quadriceps muscle (systemic) perfusion by Laser Doppler flowmetry; format: in vivo, rat; parameters: key to SYSTEMIC perfusion: 0, unchanged; ↓, decreased; ↑, increased; conditions: for muscle blood flow (leg quadriceps): hyperoxia versus normoxia
[9] = system: baroreceptor and peripheral vasculature; experiment: Summary of bioactivity of cell-free SNO-Hb and oxy-Hb (Table 3); format: in vivo, rat
[10] = Hb tetramer/dimer dissociation; format: physicochemical; conditions: assuming plasma concentration of about 6.5 μmol/L, room air
Excerpt: Hb dissociation from tetramers to dimers depends on Hb concentration and oxygen tension, and NO release from dimers is unresponsive to allosteric effectors (e.g., O2). […] Is there enough tetrameric SNO-Hb to sense oxygen and regulate NO delivery? Evidently yes, as a finely tuned regulation of SNO-Hb bioactivity by oxygen tension (NO release depends on local pO2) that contrasted with the O2-independent behavior of oxy-Hb was observed. That the plasma half-life of SNO on Hb was more than doubled during hyperoxia while protein clearance remained unaffected was also observed.

[11] = 30 minutes breathing 100% O2 or 100% O2 plus 100 ppm ENO
[12] = 30 minutes breathing room air plus 100 ppm ENO
[13] = IV, Room air, change versus before treatment
[14] = i.v. infusion, normoxic animals
[15] = vascular pO2 at injection site low
[16] = i.a. and i.v. infusion, control experiments
[17] = vascular pO2 at injection site any

## O=O [100% O2]
[1]; 100% O2 alone, before drug infusion
  effects of hyperoxia alone on tumor and muscle perfusion: transient decrease that resumed within 5 minutes (i.e., before drug infusion) to no change
Fischer 344 rats [2]
  Femoral artery HbO2: 98.2 ± 0.1 %
  Femoral artery pCO2: 56.9 ± 1.7 mm Hg
  Femoral artery pO2: 435.5 ± 34.7 mm Hg
  Femoral vein HbO2: 75.8 ± 3.4 %
  Femoral vein pCO2: 72.0 ± 2.1 mm Hg
  Femoral vein pO2: 69.8 ± 3.0 mm Hg
Fischer 344 rats [2]; window chamber
  Tumor artery HbO2: 89 ± 2 %
  Tumor vein HbO2: 78 ± 3 %
Quadriceps muscle [3]; [11]
  pO2 in quadriceps muscle: increased rapidly
tumor-feeding arterioles; hyperoxia alone, t=-5 to t=0
  diameter of tumor feeding arterioles: no vascular effect
[4]; [11]
  pO2 in tumors: insufficient to raise the pO2 to above 10 mm Hg
Fischer 344 rats [5]; hyperoxia alone, N=19
  change in HR: −3%
  change in MAP: +1%

## CCON=O [ENO, ethyl nitrite]
[6]
  growth of irradiated tumors (relative tumor volume): grew more slowly
Quadriceps muscle [3]; [11]
  pO2 in quadriceps muscle: increased rapidly
Quadriceps muscle [3]; [12]
  pO2 in quadriceps muscle: this effect was not seen
[4]; [11]
  pO2 in tumors: above 10 mm Hg
[4]; [12]
  pO2 in tumors: remained largely unchanged

## S-nitrosohemoglobin [SNO-Hb]
[7]; R conformer
  KD (tetramer/dimer), R conformer: 3000 nM
[7]; T conformer
  KD (tetramer/dimer), T conformer: 3 nM
[1]; IA, 100% O2
  TUMOR perfusion: 0
[1]; IA, Room air
  TUMOR perfusion: 0
[1]; IV, 100% O2
  TUMOR perfusion: 0
[1]; [13]
  TUMOR perfusion: ↓*
[1]; i.a. infusion, hyperoxic rats versus i.a. room air
  pressor activity (tumor perfusion): not altered
[1]; i.a. infusion, normoxic animals, compared to i.v.
  decrease in tumor perfusion: not significantly different compared to i.v. infusion
[1]; i.v. infusion, 100% O2 (hyperoxia) versus room air
  tumor perfusion, flank tumors: hyperoxia abolished the reduction in tumor perfusion
[1]; i.v. infusion, hyperoxic rats
  tumor perfusion, window chamber tumors: this decrease was prevented
[1]; [14]
  tumor perfusion, window chamber tumors: potent decrease in tumor perfusion
[1]; i.v. infusion
  tumor blood flow (perfusion), flank tumors: reduced perfusion
Quadriceps muscle [8]; IA, 100% O2
  SYSTEMIC perfusion: 0
Quadriceps muscle [8]; IA, Room air
  SYSTEMIC perfusion: 0
Quadriceps muscle [8]; IV, 100% O2
  SYSTEMIC perfusion: 0
Quadriceps muscle [8]; IV, Room air
  SYSTEMIC perfusion: ↓
Quadriceps muscle [8]; i.a. infusion, independently of O2 delivery
  muscle blood flow (quadriceps): remained unaltered
Quadriceps muscle [8]; i.v. infusion
  muscle blood flow (leg quadriceps): prevented under hyperoxia
Quadriceps muscle [8]; i.v. infusion, rats breathing room air (normoxia)
  muscle perfusion in the quadriceps: decreased muscle perfusion more than Hb; also recorded: decrease in muscle blood flow
[9]; vascular pO2 at injection site high
  Baroreceptor effect: inhibition
[9]; vascular pO2 at injection site high, dose-dependent effect
  Peripheral effect: vasodilation
[9]; [15]
  Baroreceptor effect: none
  Peripheral effect: vasoconstriction
tumor-feeding arterioles; 100% O2
  TUMOR vascular diameter: 0
tumor-feeding arterioles; Room air
  TUMOR vascular diameter: 0
tumor-feeding arterioles; i.v. infusion, normoxic or hyperoxic rats, window chamber
  diameter of tumor feeding arterioles: no significant change
[10]
  fraction present as tetramers: about 35%
Fischer 344 rats [5]; IA, 100% O2
  SYSTEMIC HR: 0
  SYSTEMIC MAP: ↑
Fischer 344 rats [5]; IA, Room air
  SYSTEMIC HR: 0
  SYSTEMIC MAP: ↑
Fischer 344 rats [5]; IV, 100% O2
  SYSTEMIC HR: 0
  SYSTEMIC MAP: ↑
Fischer 344 rats [5]; IV, Room air
  SYSTEMIC HR: 0
  SYSTEMIC MAP: 0
Fischer 344 rats [5]; i.a. infusion, normoxic and hyperoxic
  HR: remained unchanged
Fischer 344 rats [5]; i.a. infusion, from 5 minutes (normoxic) and 10 minutes (hyperoxic)
  MAP: significant increase in MAP
Fischer 344 rats [5]; i.v. infusion, hyperoxia
  HR: no significant effect on HR
Fischer 344 rats [5]; i.v. infusion, hyperoxia, from 10 minutes after infusion
  MAP: significant increase in the MAP
Fischer 344 rats [5]; [14]
  HR: No change
  MAP: No change

## SNO-albumin: bovine serum albumin reacted with NaNO2 (S-nitrosylated albumin) [reference compound]
[1]; i.v. infusion
  tumor blood flow (perfusion), flank tumors: small increase in tumor perfusion

## albumin [reference compound]
[1]; [16]
  TUMOR perfusion: did not induce any significant or differential change
Fischer 344 rats [5]; [16]
  HR: did not induce any significant or differential change
  MAP: did not induce any significant or differential change

## oxyhemoglobin [oxy-Hb, reference compound]
[1]; IV, 100% O2
  TUMOR perfusion: ↓
[1]; [13]
  TUMOR perfusion: ↓
[1]; i.v. infusion
  tumor blood flow (perfusion), flank tumors: rapid and sustained decrease in tumor blood flow
Quadriceps muscle [8]; IV, 100% O2
  SYSTEMIC perfusion: ↓
Quadriceps muscle [8]; IV, Room air
  SYSTEMIC perfusion: ↓
Quadriceps muscle [8]; i.v. infusion
  muscle blood flow (leg quadriceps): hyperoxia did not modify the effect of oxy-Hb in muscles
[9]; [17]
  Baroreceptor effect: none
  Peripheral effect: vasoconstriction
Fischer 344 rats [5]; IV, 100% O2
  SYSTEMIC MAP: 0
Fischer 344 rats [5]; IV, Room air
  SYSTEMIC MAP: 0
Fischer 344 rats [5]; i.v. infusion, normoxia or hyperoxia
  MAP: no effect on MAP
Fischer 344 rats [5]; i.v. infusion, from 5 minutes after infusion, more severe in hyperoxic than in normoxic rats
  HR: induced bradycardia
